# Measurements taken from patent US9078851B2, “Composition for preventing or treating a spinal cord injury” (UNIVERSITY-INDUSTRY COOPERATION GROUP OF KYUNG HEE, priority 2009, dated 2015).
# What was measured:
# [1] = system: spinal cord injury; assay: Ethologic change test, BBB locomotor rating scale after spinal cord injury; type: in vivo, rat
# Protocol: For the present experiment, male white mice (Sprague-Dawley 240-250 g, 7 weeks, 10 mice) were under general anesthetics by an intraperitoneal injection of Ketamin (80 mg/kg, Yuhan Corporation) and Rompun (7.4 mg/kg, Bayer Korea Corporation). Laminectomy was performed at spine T9-10 level to expose a spinal cord keeping intact dura. And then, rat was put on Spinal cord dropping device (NYU); spine processes at T8 and T11 sites were fixed by using a clamp, respectively; then, a rod (diameter 2 mm, weight 10 g) was dropped from 25 mm height vertical to dorsal part of spinal cord followed by suturing injury site muscle and skin. The rat of Sham-operated control group was performed only laminectomy at same area without damaging spinal cord injury (marked by ‘sham” in figures; hereinafter, the same as above). Substance P (marked by ‘SP’ in figures; hereinafter, the same as above) dissolved in saline of 5 nmol/kg concentration was injected through tail vein at immediately, 24 hours, and 48 hours after a spinal cord injury for experimental groups. At sham control group, same volume of saline (marked by ‘vehicle’ in figures; hereinafter, the same as above) without Substance P was injected at same time points. Operation were performed on an electric heating pad of 37° C., and then rat were transferred to cage after awake from the anesthetic. • (2) Preparation of Tissue An ethologic change test was performed as follows: an experimental animal was put to a large basin having soft and non-smooth bottom (Width 90 cm×Length 130 cm×Height 30 cm); then body's balance states and moving states of hind-leg's coxalgic pelvis, knee joint, and ankle joint were observed when freely walking; then it was converted into a score based on Basso-Bresnahan-Beattie (BBB) locomotor rating scale (Basso et al., 1995); and then four researchers performed a blind technique. Substance P or saline was injected to a tail vein of rat, respectively at immediately, 1 d, 2 d after a spinal cord injury, using the same method as (1) of Example 1. And then, for the experimental group (10 rats/group) and the control (9 rats/group), an ethologic change due to a spinal cord injury was observed and estimated for different periods, such as after injuring, 1 week, 2 weeks, 3 weeks, 4 weeks, 5 weeks, […], and 6 weeks. A mean value of scores (BBB scores) observed by four researchers was taken, and the results thereof were statistically analyzed. The statistical analysis was performed in a method of two-way ANOVA with post hoc Tukey test.
# [2] = system: IL-10 expression in nerve cell; assay: Immunofluorescence staining of IL-10 in nerve cells and microglia/macrophages after spinal cord injury; type: in vivo, rat; conditions: tail vein injection; one day after spinal cord injury
# Protocol: (§1) For the present experiment, male white mice (Sprague-Dawley 240-250 g, 7 weeks, 10 mice) were under general anesthetics by an intraperitoneal injection of Ketamin (80 mg/kg, Yuhan Corporation) and Rompun (7.4 mg/kg, Bayer Korea Corporation). Laminectomy was performed at spine T9-10 level to expose a spinal cord keeping intact dura. And then, rat was put on Spinal cord dropping device (NYU); spine processes at T8 and T11 sites were fixed by using a clamp, respectively; then, a rod (diameter 2 mm, weight 10 g) was dropped from 25 mm height vertical to dorsal part of spinal cord followed by suturing injury site muscle and skin. The rat of Sham-operated control group was performed only laminectomy at same area without damaging spinal cord injury (marked by ‘sham” in figures; hereinafter, the same as above).
# Substance P (marked by ‘SP’ in figures; hereinafter, the same as above) dissolved in saline of 5 nmol/kg concentration was injected through tail vein at immediately, 24 hours, and 48 hours after a spinal cord injury for experimental groups. At sham control group, same volume of saline (marked by ‘vehicle’ in figures; hereinafter, the same as above) without Substance P was injected at same time points. Operation were performed on an electric heating pad of 37° C., and then rat were transferred to cage after awake from the anesthetic. • (2) Preparation of Tissue […]
# [3] = system: cytokines at spinal cord injury site; assay: Rat cytokine antibody array analysis of spinal cord tissue; type: in vivo; conditions: tail vein injection
# Protocol: as §1
# Substance P (marked by ‘SP’ in figures; hereinafter, the same as above) dissolved in saline of 5 nmol/kg concentration was injected through tail vein at immediately, 24 hours, and 48 hours after a spinal cord injury for experimental groups. At sham control group, same volume of saline (marked by ‘vehicle’ in figures; hereinafter, the same as above) without Substance P was injected at same time points. Operation were performed on an electric heating pad of 37° C., and then rat were transferred to cage after awake from the anesthetic. • (2) Preparation of Tissue
# A rat cytokine antibody array analysis was performed in order to investigate an effect of Substance P in expressing cytokine.
# At immediately, 1 d, and 2d, Substance P or saline (the same volume without Substance P) was injected through tail vein using the same method as (1) of Example 1. After operating, the experimental group (4 rats/group) and the control (4 rats/group) were sacrificed at 1 d and 5d, respectively. The spinal cord tissue (1 cm) obtained from an animal was homogenized with a dissolution buffer solution (10% glycerol, 20 mM Tris [pH 8.0], 137 mM NaCl, 1% Nonidet P-40, 0.5 mM EDTA, 10 mM Na2P2O7, 10 mM NaF, 1 μg/ml aprotinin, 10 μg/ml leupeptin, 1 mM vanadate and 1 mM PMSF). A protein amount of supernatant was determined by BCA assay (Pierce). Subsequently, a cytokine assay was performed according to instructions of Ray Biotech Morcross GA protocol. A membrane was blocked with a blocking buffer solution, then 150 μg of a protein sample was added, and reacted for 2 hours at a room temperature. The membrane was washed and 1 ml of primary antibody conjugated with a biotin was added, and placed at 4° C. overnight. Next day, the membrane was washed, and reacted with 2 ml of streptoavidin conjugated with horseradish peroxidase for 30 minutes at a room temperature. The membrane was developed using enhanced chemiluminescence-type solution, and the film was exposed to Radiography. Using USA NIH Image and Image J software (Hong et al., 2009), density quantification of array was performed.
# [4] = five days after spinal cord injury, vs control
# [5] = one day after spinal cord injury
substance,measurement,setting,value
Substance P,motor skill,"[1]; from 14 days, vs control",meaningful improved
same,motor skill,"[1]; from about 5 weeks, vs control",meaningfully recovered and improved
same,spinal cord nerve function,"[1]; from about one week after administrating, vs control",beginning to recover
same,BBB score,"[1]; tail vein injection at immediately, 1 d, 2 d after injury, at 6 weeks, P<0.05 vs control",11.5±0.5
same,IL-10 expression in cells,[2],specifically expressed at a nerve cell
same,amount of IL-10,[3]; 5 d after spinal cord injury,higher than the control
same,expression of IFN-γ,[3]; [4],slightly decreased
same,expression of IL-1α,[3]; [4],slightly decreased
same,amount of IL-6,[3]; [5],meaningfully increased
same,increase of amount of IL-4,[3]; [5],two times
same,increase of amount of IL-10,[3]; [5],ten times
